Results from patent US9539219B2, “Pharmaceutical compositions of carotenoid chylomicrons” (HEALTH-EVER BIOTECH CO. LTD, priority 2013, dated 2017).
Like-named read-outs stand apart in the source and are kept apart here. Values belong to the compound of their own block, whether it stands above or below them.

What was measured:
[1] = Pharmacokinetic study of the chylomicron and micelle compositions in rats (gavage and i.v.); format: in vivo, male Sprague-Dawley rats; details: rat
Experimental: The pharmacokinetic properties of the pharmaceutical composition prepared in Example 1 and the pharmaceutical composition prepared in Example 2 were assessed in male Sprague-Dawley rats.
A total of 24 rats (all rats with body weight of about 280 g each) were divided into two groups with 12 each, one received oral administration (gavage) while the other received intravenous (i.v.) injection.
The pharmaceutical composition in Example 1 and the pharmaceutical composition in Example 2 were administered via gavage and intravenous (IV) injection. An equivalent of 1.43 mg/kg of solanorubin was given by IV route (one-tenth of oral dosage) and an equivalent of 14.3 mg/kg of solanorubin was administered orally.
Blood samples were collected via the tail vein of the rats at the following time intervals: 2 minutes, 5 minutes, 10 minutes, 30 minutes, 1 hour, 2 hours, 4 hours, 8 hours, 24 hours, 48 hours and 72 hours after the composition was administered.
Pharmacokinetic study was carried out using the WinNonlin software system (Pharsight Co, Mountain View, Calif., USA) by non-compartmental model. The area under the drug concentration-time curve (AUC) was used to determine total amount of all-trans-solanorubin, cis-solanorubin, octohydrogenosolanorubin and hexahydrogenosolanorubin to reach the systematic circulation. Some other kinetic parameters such as Cmax, Tmax, and t1/2 were measured as well. The absolute bioavailability of trans-solanorubin, cis-solanorubin, octohydrogenosolanorubin and hexahydrogenosolanorubin was calculated using the following formula: […]
All the data were subjected to analysis of variance and Duncan's multiple range test using Statistical Analysis Software (SAS)^16 for statistical significance at P<0.05.

[2] = Stability at pH 2.0, 3.5, 6.0, 6.8 and 7.4; format: physicochemical; details: pH 2.0, 3.5, 6.0, 6.8 and 7.4 for 1, 2, 4, 6, 12 or 24 h; for Change in concentration in micelles at different pH: micelle
Experimental: (§1) Likewise, when chylomicron was stored at pH 2.0, 3.5, 6.0, 6.8 and 7.4 for 1, 2, 4, 6, 12 or 24 h, the stability of solanorubin, octohydrogenosolanorubin and hexahydrogenosolanorubin was maintained. The encapsulation efficiency of solanorubin in chylomicron was assessed to be approximately 80%.
(§2) The average size of the micelle, based on DLS and TEM analyses, was approximately 7.5 nm, with spherical shape and transparent appearance. […] Also, the mean values of solanorubin, octohydrogenosolanorubin and hexahydrogenosolanorubin were ranged from 0.34-0.38 mg/mL, 0.03-0.04 mg/mL and 0.03-0.04 mg/mL, respectively, during storage or heating under the same condition. […] The encapsulation efficiency of solanorubin in micelle was determined to be about 78%.

[3] = Stability during storage at 4° C. or 25° C. for 3 months or heating at 100° C. for 4 h; format: physicochemical; details: 4° C. or 25° C. for 3 months or 100° C. for 4 h
Experimental: as §1, §2

Encapsulation efficiency = format: physicochemical
Experimental: as §1, §2

[4] = cited from earlier work
[5] = rat, Faisal et al. J. Pharm. Pharmacol. 2010, cited from earlier work
[6] = Pre-experiments on saturation of absorption (dose selection); format: in vivo; details: several pre-experiments
[7] = male, Sprague-Dawley, in vivo, po, 14.3 mg/kg

AUC higher for IV administered micelle composition compared to IV administered chylomicron composition (difference) ([1]; in vivo, iv, 1.43 mg/kg): 544 µg·min/mL | Cmax of IV administered micelle composition, fold higher than IV administered chylomicron composition ([1]; in vivo, iv, 1.43 mg/kg): 9.6 fold | Tmax ([1]; in vivo, iv, 1.43 mg/kg): 2 min | Change in concentration in micelles at different pH [2]: only a minor change
Structure (SMILES): CC(C)=CCCC(C)=CCCC(C)=CC=CC(C)=CC=CC=C(C)CCC=C(C)CCC=C(C)CCC=C(C)C [Hexahydrogenosolanorubin, hexahydrogenosolanorubin]

AUC higher for IV administered micelle composition compared to IV administered chylomicron composition (difference) ([1]; in vivo, iv, 1.43 mg/kg): 311 µg·min/mL | Cmax of IV administered micelle composition, fold higher than IV administered chylomicron composition ([1]; in vivo, iv, 1.43 mg/kg): 5.9 fold | Cmax ([1]; in vivo, po, 14.3 mg/kg): 0.06 µg/mL | Change in concentration in micelles at different pH [2]: only a minor change
Structure (SMILES): CC(C)=CCC/C(C)=C/CC/C(C)=C/CC/C(C)=C/C=C/C=C(\C)CC/C=C(\C)CC/C=C(\C)CCC=C(C)C [Octohydrogenosolanorubin, octohydrogenosolanorubin]

Structure (SMILES): CC(C)=CCC/C(C)=C/C=C/C(C)=C/C=C/C(C)=C/C=C/C=C(C)/C=C/C=C(C)/C=C/C=C(\C)CCC=C(C)C [Solanorubin, solanorubin]
Cmax of IV administered micelle composition, fold higher than IV administered chylomicron composition ([1]; IV 1.43 mg/kg BW): 7.8 fold | AUC ([1]; male, Sprague-Dawley, in vivo, IV 1.43 mg/kg BW, read-out: AUC higher for IV administered micelle composition compared to IV administered chylomicron composition (difference) (converted)): 3380 ng·h/mL | bioavailability ([1]; male, Sprague-Dawley, in vivo, 14.3 mg/kg): 9.5% | bioavailability ([1]; male, Sprague-Dawley, in vivo, 14.3 mg/kg, Bioavailability): 6.8% | AUC ([1]; male, Sprague-Dawley, in vivo, iv, 1.43 mg/kg): 12200 ± 1400 ng·h/mL | AUC ([1]; male, Sprague-Dawley, in vivo, iv, 1.43 mg/kg, AUC): 8830 ng·h/mL | Tmax ([1]; male, Sprague-Dawley, in vivo, iv, 1.43 mg/kg, Tmax): 2 min | AUC [1, 7]: 8380 ng·h/mL | Cmax [1, 7]: 0.18 µg/mL | Tmax [1, 7]: 240 min | t1/2 [1, 7]: 2018 ± 326 min | AUC ([1]; male, Sprague-Dawley, in vivo, po, 14.3 mg/kg, AUC): 8270 ng·h/mL | Cmax ([1]; male, Sprague-Dawley, in vivo, po, 14.3 mg/kg, Cmax): 0.27 µg/mL | Tmax ([1]; male, Sprague-Dawley, in vivo, po, 14.3 mg/kg, Tmax): 120 min | half-life ([1]; male, Sprague-Dawley, in vivo, po, 14.3 mg/kg, t1/2): 1730 ± 198 min | Stability of the carotenoid in chylomicron (change in concentration) ([3]; chylomicron): high stability | Mean concentration during storage or heating ([3]; micelle): 0.34 to 0.38 mg/mL | Stability of the carotenoid in chylomicron at different pH ([2]; chylomicron): maintained | Change in concentration in micelles at different pH [2]: only a minor change | Encapsulation efficiency (Encapsulation efficiency; solanorubin in chylomicron): approximately 80% | Encapsulation efficiency (Encapsulation efficiency; solanorubin in micelle): about 78% | Solubility in water [4]: insoluble in water | Solubility in water ([4]; listed as solanorubin): practically insoluble in water | Bioavailability of solanorubin not encapsulated / from natural sources [5]: about 1.85% | Bioavailability of solanorubin not encapsulated / from natural sources ([5]; listed as non-encapsulated solanorubin): 1.85%

Structure (SMILES): CC(C)=CCC/C(C)=C/C=C/C(C)=C/C=C/C(C)=C/C=C/C=C(C)/C=C/C=C(C)/C=C/C=C(\C)CCC=C(C)C [lycopene]
Dose above which saturation of absorption may occur [6]: higher than 14.3 mg/kg BW
